Results published in a melting point compilation (Tetko et al.).

COc1ccc(OC)c(CNCCO)c1
melting point: 91 to 93 °C

CC(CCOc1ccccc1)C(=O)O (stereo not drawn)
melting point: 76 to 78 °C

OCc1cc2ccccc2nc1Cl
melting point: 163 to 165 °C

Cc1nn(-c2ccccc2)c(C)c1SCC(=O)O
melting point: 148 to 150 °C

O=C(O)c1n[nH]c2ccc(Cl)cc12
melting point: 271 to 273 °C

COc1cccc2sc(NC(=O)OCC(F)(F)F)nc12
melting point: 133 to 135 °C

Cc1cc(O)cc(=O)n1C(C)C(=O)O (stereo not drawn)
melting point: 258 to 260 °C

Cc1cc(C)c2cc(C(=O)O)[nH]c2c1
melting point: 168 to 170 °C

O=C(Nc1ccccc1F)C1CCc2ccccc2N1 (stereo not drawn)
melting point: 96 to 98 °C

NC(=O)NC1(C(=O)O)CC1
melting point: 189 to 191 °C

Nc1cc(C(F)(F)F)ccc1O
melting point: 115 to 117 °C

CC(C)Cc1nc(N)sc1C(=O)O
melting point: 149 to 151 °C

O=C(O)c1ccnc(N2CCCCC2)n1
melting point: 99 to 101 °C

O=S(=O)(CCN1CCC(O)CC1)c1ccc(Br)cc1
melting point: 117 to 119 °C

Cc1cc(C(=O)NN)c2ccccc2n1
melting point: 177 to 179 °C

O=C(NCCO)c1ccc(O)cc1
melting point: 155 to 157 °C

O=Cc1cn(-c2ccccc2)nc1-c1cccs1
melting point: 90 to 92 °C

CC(=O)Nc1cccc(I)c1
melting point: 123 to 125 °C

C=Cc1nc2sc3c(c2c(=O)[nH]1)CCCC3
melting point: 209 to 211 °C

CCOC(=O)Nc1cccc(C(=O)O)c1
melting point: 196 to 198 °C

Cc1cc(C)c2c(N)c(C(=O)N3CCOCC3)sc2n1
melting point: 147 to 149 °C

C#Cc1cccc(NC(N)=O)c1
melting point: 153 to 155 °C

Cc1ccc(Cl)cc1NC(=O)CC#N
melting point: 190 to 192 °C

NC(=O)CC(N)=S
melting point: 97 to 110 °C

CCCS(=O)(=O)Nc1ccc(C(=O)O)cc1
melting point: 187 to 189 °C

CC1(c2cccc(Cl)c2)NC(=O)NC1=O (stereo not drawn)
melting point: 200 to 202 °C

N#Cc1cccc(NC(=O)CC2CC2)c1
melting point: 89 to 91 °C

O=C(O)c1c[nH]nc1-c1cccnc1
melting point: 255 to 257 °C

O=C(O)CSc1nnc(-c2ccco2)o1
melting point: 152 to 155 °C

Clc1cc(-c2cccnc2)nc2ncnn12
melting point: 175 to 177 °C

Cc1cc(C(=O)O)nc2nc(O)[nH]c(=O)c12
melting point: 266 to 268 °C

CN(CC(=O)O)c1ccc(Cl)cn1
melting point: 135 to 137 °C

COc1ccc(C=O)cc1OCC(N)=O
melting point: 136 to 138 °C

O=Cc1cnc(-c2cccnc2)s1
melting point: 139 to 141 °C

N#Cc1ccc(F)c(CS(=O)(=O)Cl)c1
melting point: 105 to 107 °C

CC(C)C(=O)c1ccc(S(=O)(=O)Cl)cc1
melting point: 64 to 66 °C

CS(=O)(=O)c1cc(Cl)c(C(=O)O)c(Cl)c1
melting point: 144 to 146 °C

NCc1cc(C(N)=O)no1
melting point: 149 to 151 °C

OCc1cnn(Cc2ccc(Br)cc2)c1
melting point: 72 to 74 °C

O=C1Nc2cc(N3CCCC3)ccc2C1=O
melting point: 293 to 295 °C

CC1CCC2(CC1)NC(=O)N(CC(=O)O)C2=O (stereo not drawn)
melting point: 223 to 225 °C

N#Cc1c(F)cccc1Sc1ccccc1
melting point: 108 to 110 °C

NS(=O)(=O)Cc1cc(Cl)ccc1F
melting point: 186 to 188 °C

COc1ccc(CNC(=O)c2c[nH]nc2N)cc1
melting point: 196 to 198 °C

O=C(O)c1cc(Cl)nc(N2CCOCC2)c1
melting point: 222 to 224 °C

Cn1nc(C(=O)O)ccc1=O
melting point: 170 to 175 °C

ClCc1coc(-c2ccccc2Br)n1
melting point: 46 to 48 °C

COc1ccc(C(C)(C)C(=O)O)cc1OC
melting point: 84 to 86 °C

CCN(CC)C1=NC(=O)C(CC(=O)Nc2cccc(C(=O)O)c2)S1 (stereo not drawn)
melting point: 236 to 238 °C

COc1ccccc1NC(=O)CCCCC(=O)O
melting point: 82 to 84 °C

CC(C)(C)C(=O)N1CCCC(C(=O)O)C1 (stereo not drawn)
melting point: 179 to 181 °C

O=Cc1sc(N2CCCC2)nc1Cl
melting point: 119 to 121 °C

CCOC(=O)c1sc(C(C)N)nc1C (stereo not drawn)
melting point: 53 to 55 °C

CC(C)(C)C1CCc2nc(N)sc2C1 (stereo not drawn)
melting point: 131 to 133 °C

O=C(O)C1CC2CCC1O2 (stereo not drawn)
melting point: 44 to 46 °C

C=CCNC(=O)Nc1ccc(N)cc1
melting point: 157 to 159 °C

Cc1cc(C)n(-c2ccc(S(N)(=O)=O)cc2)n1
melting point: 243 to 245 °C

O=C1CNc2cccc(F)c2N1
melting point: 161 to 163 °C

Cc1nc(N)oc1C
melting point: 64 to 66 °C

CC(C)(C)C1CCc2[nH]c(=O)sc2C1 (stereo not drawn)
melting point: 205 to 207 °C

COc1ccc(S(=O)(=O)Cl)cc1C
melting point: 51 to 53 °C

Cn1cc(Nc2cccc(C(=O)O)c2)cn1
melting point: 218 to 220 °C

Nc1nc(-c2ccc(Cl)s2)cs1
melting point: 98 to 100 °C

Cc1cc(C)c2nc(NN)cc(C)c2c1
melting point: 113 to 115 °C

N#Cc1ccc(S)cc1C(F)(F)F
melting point: 71 to 73 °C

CC(C)c1cc(NC(=O)CCl)on1
melting point: 75 to 77 °C

N#Cc1cc2ccccc2nc1Br
melting point: 179 to 181 °C

S=C(NCc1cccnc1)NCc1cccnc1
melting point: 157 to 159 °C

C=CC(=O)Nc1cc(F)cc(F)c1
melting point: 155 to 157 °C

Cc1nc(S(=O)(=O)Oc2c(F)c(F)c(F)c(F)c2F)sc1C
melting point: 98 to 100 °C

O=C(O)c1occc1CN1CCOCC1
melting point: 184 to 186 °C

CC1CSc2ccc(Cl)cc2NC1=O (stereo not drawn)
melting point: 222 to 224 °C

CCCN1C(=O)CNc2ccccc21
melting point: 70 to 72 °C
